Laboratory results from US10370333B2 (Sanford Burnham Prebys Medical Discovery Institute, priority 2012, dated 2019).
pIC50: −log10 of the molar value.

These compounds were tested against TNAP (Homo sapiens (Human), UniProt P05186) (assay: TNAP (PPi) inhibition assay, pyrophosphate as substrate).
Format: biochemical
In short: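 Secreted epitope-tagged human TNAP from transiently transfected COS-1 cells, dialyzed to remove phosphate. Inhibitors tested kinetically at pH 7.4 with PPi as substrate; released phosphate quantified colorimetrically with Biomol Green reagent.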
Work on `COCCNC(=O)c1cncc(NS(=O)(=O)c2cc(Br)ccc2OC)c1` [Example IV-21, 5-(5-Bromo-2-methoxyphenylsulfonamido)-N-(2-methoxyethyl)nicotinamide] yielded a pIC50 of 6.00 to 7.00. For `COc1ccc(Br)cc1S(=O)(=O)Nc1cncc(C(=O)NCCN(C)C)c1` [Example IV-22, 5-(5-Bromo-2-methoxyphenylsulfonamido)-N-(2-(dimethylamino)ethyl)nicotinamide], the pIC50 was 6.00 to 7.00. Work on `COc1ccc(Br)cc1S(=O)(=O)Nc1cncc(C(=O)Nc2ccccc2)c1` [Example IV-23, 5-(5-Bromo-2-methoxyphenylsulfonamido)-N-phenylnicotinamide] yielded a pIC50 of 6.00 to 7.00. In the case of `COc1ccc(Br)cc1S(=O)(=O)Nc1cncc(C(=O)N2CCOCC2)c1` [Example IV-24, 5-Bromo-2-methoxy-N-(5-(morpholine-4-carbonyl)pyridin-3-yl)benzenesulfonamide], the pIC50 was < 6.00. Work on `COc1ccc(Br)cc1S(=O)(=O)Nc1cncc(C(=O)N2CCN(C)CC2)c1` [Example IV-25, 5-Bromo-2-methoxy-N-(5-(4-methylpiperazine-1-carbonyl)pyridin-3-yl)benzenesulfonamide] yielded a pIC50 of 6.00 to 7.00. With `COc1ccc(Cl)cc1S(=O)(=O)Nc1cncc(C(N)=O)c1` [Example IV-26, 5-(5-Chloro-2-methoxyphenylsulfonamido)nicotinamide] the pIC50 was > 7.00. For `CCCNC(=O)c1cncc(NS(=O)(=O)c2cc(Cl)ccc2OC)c1` [Example IV-29, 5-(5-Chloro-2-methoxyphenylsulfonamido)-N-propylnicotinamide], the pIC50 was > 7.00. `COc1ccc(Cl)cc1S(=O)(=O)Nc1cncc(C(=O)NC2CCCCC2)c1` [Example IV-30, 5-(5-Chloro-2-methoxyphenylsulfonamido)-N-cyclohexylnicotinamide] was tested, and the pIC50 was > 7.00. `COCCNC(=O)c1cncc(NS(=O)(=O)c2cc(Cl)ccc2OC)c1` [Example IV-32, 5-(5-Chloro-2-methyoxyphenylsulfonamido)-N-(2-methoxyethyl)nicotinamide] showed a pIC50 of 6.00 to 7.00. In the case of `COc1ccc(Cl)cc1S(=O)(=O)Nc1cncc(C(=O)NCCN(C)C)c1` [Example IV-33, 5-(5-Chloro-2-methoxyphenylsulfonamido)-N-(2-(dimethylamino)ethyl)nicotinamide], the pIC50 was 6.00 to 7.00. `COc1ccc(Cl)cc1S(=O)(=O)Nc1cncc(C(=O)N2CCOCC2)c1` [Example IV-34, 5-Chloro-2-methoxy-N-(5-(morpholine-4-carbonyl)pyridin-3-yl)benzenesulfonamide] gave a pIC50 of 6.00 to 7.00. Compound `COc1ccc(OC)c(S(=O)(=O)Nc2cncc(C(N)=O)c2)c1` [Example IV-36, 5-(2,5-Dimethoxyphenylsulfonamido)nicotinamide] has a pIC50 of 6.00 to 7.00. For `CNC(=O)c1cncc(NS(=O)(=O)c2cc(OC)ccc2OC)c1` [Example IV-37, 5-(2,5-Dimethoxyphenylsulfonamido)-N-methylnicotinamide], the pIC50 was 6.00 to 7.00. `CCCNC(=O)c1cncc(NS(=O)(=O)c2cc(OC)ccc2OC)c1` [Example IV-38, 5-(2,5-Dimethoxyphenylsulfonamido)-N-propylnicotinamide] showed a pIC50 of 6.00 to 7.00. In the case of `COc1ccc(OC)c(S(=O)(=O)Nc2cncc(C(=O)NC3CCCCC3)c2)c1` [Example IV-39, 5-(2,5-Dimethoxyphenylsulfonamido)-N-cyclohexylnicotinamide], the pIC50 was > 7.00. Compound `COc1ccc(OC)c(S(=O)(=O)Nc2cncc(C(=O)Nc3ccccc3)c2)c1` [Example IV-40, 5-(2,5-Dimethoxyphenylsulfonamido)-N-phenylnicotinamide] has a pIC50 of 6.00 to 7.00. `COCCNC(=O)c1cncc(NS(=O)(=O)c2cc(OC)ccc2OC)c1` [Example IV-41, 5-(2,5-Dimethoxyphenylsulfonamido)-N-(2-methoxyethyl)nicotinamide] showed a pIC50 of 6.00 to 7.00. Work on `COc1ccc(OC)c(S(=O)(=O)Nc2cncc(C(=O)NCCN(C)C)c2)c1` [Example IV-42, 5-(2,5-Dimethoxyphenylsulfonamido)-N-(2-(dimethylamino)ethyl)nicotinamide] yielded a pIC50 of 6.00 to 7.00. For `COc1ccc(OC)c(S(=O)(=O)Nc2cncc(C(=O)N3CCOCC3)c2)c1` [Example IV-43, 2,5-Dimethoxy-N-(5-(morpholine-4-carbonyl)pyridin-3-yl)benzenesulfonamide], the pIC50 was 6.00 to 7.00. In the case of `COc1ccc(OC)c(S(=O)(=O)Nc2cncc(C(=O)N3CCN(C)CC3)c2)c1` [Example IV-44, 2,5-Dimethoxy-N-(5-(4-methylpiperazine-1-carbonyl)pyridin-3-yl)benzenesulfonamide], the pIC50 was > 7.00. In the case of `COc1ccc(Br)cc1S(=O)(=O)Nc1cnc2ccc(O)cc2c1` [Example IX-1, 5-Bromo-N-(6-hydroxyquinolin-3-yl)-2-methoxybenzenesulfonamide], the pIC50 was > 7.00. `COc1ccc2ncc(NS(=O)(=O)c3cc(Br)ccc3OC)cc2c1` [Example IX-2, 5-Bromo-2-methoxy-N-(6-methoxyquinolin-3-yl)benzenesulfonamide] was tested, and the pIC50 was > 7.00. With `COc1ccc(OC)c(S(=O)(=O)Nc2cnc3ccc(O)cc3c2)c1` [Example IX-3, N-(6-Hydroxyquinolin-3-yl)-2,5-dimethoxybenzenesulfonamide] the pIC50 was > 7.00. `COC(=O)c1ccc2ncc(NS(=O)(=O)c3cc(Br)ccc3OC)cc2c1` [Example IX-4, 3-(5-Bromo-2-methoxy-benzenesulfonylamino)-quinoline-6-carboxylic Acid methyl ester] was tested, and the pIC50 was > 7.00. For `COc1ccc(Br)cc1S(=O)(=O)Nc1cnc2ccc(C(=O)O)cc2c1` [Example IX-5, 3-(5-Bromo-2-methoxy-benzenesulfonylamino)-quinoline-6-carboxylic Acid], the pIC50 was 6.00 to 7.00. `COc1ccc(Br)cc1S(=O)(=O)Nc1cnc2ccc(C(N)=O)cc2c1` [Example IX-6, 3-(5-Bromo-2-methoxy-benzenesulfonylamino)-quinoline-6-carboxylic Acid Amide] was tested, and the pIC50 was > 7.00. With `CNC(=O)c1ccc2ncc(NS(=O)(=O)c3cc(Br)ccc3OC)cc2c1` [Example IX-7, 3-(5-Bromo-2-methoxy-benzenesulfonylamino)-quinoline-6-carboxylic Acid Methylamide] the pIC50 was > 7.00. For `COC(=O)c1ccc2ncc(NS(=O)(=O)c3cc(OC)ccc3OC)cc2c1` [Example IX-8, 3-(2,5-Dimethoxy-benzenesulfonylamino)-quinoline-6-carboxylic Acid Methyl Ester], the pIC50 was 6.00 to 7.00. For `COc1ccc(OC)c(S(=O)(=O)Nc2cnc3ccc(C(=O)O)cc3c2)c1` [Example IX-9, 3-(2,5-Dimethoxy-benzenesulfonylamino)-quinoline-6-carboxylic Acid], the pIC50 was < 6.00. `COc1ccc(OC)c(S(=O)(=O)Nc2cnc3ccc(C(N)=O)cc3c2)c1` [Example IX-10, 3-(2,5-Dimethoxy-benzenesulfonylamino)-quinoline-6-carboxylic Acid Amide] was tested, and the pIC50 was 6.00 to 7.00. Work on `CNC(=O)c1ccc2ncc(NS(=O)(=O)c3cc(OC)ccc3OC)cc2c1` [Example IX-11, 3-(2,5-Dimethoxy-benzenesulfonylamino)-quinoline-6-carboxylic Acid Methylamide] yielded a pIC50 of 6.00 to 7.00. For `CCCNC(=O)c1ccc2ncc(NS(=O)(=O)c3cc(OC)ccc3OC)cc2c1` [Example IX-12, 3-(2,5-Dimethoxy-benzenesulfonylamino)-quinoline-6-carboxylic Acid Propylamide], the pIC50 was > 7.00. In the case of `COc1ccc(OC)c(S(=O)(=O)Nc2cnc3ccc(C(=O)NC4CC4)cc3c2)c1` [Example IX-13, 3-(2,5-Dimethoxy-benzenesulfonylamino)-quinoline-6-carboxylic Acid Cyclopropylamide], the pIC50 was 6.00 to 7.00. With `COc1ccc(OC)c(S(=O)(=O)Nc2cnc3ccc(C(=O)NC4CCCCC4)cc3c2)c1` [Example IX-14, 3-(2,5-Dimethoxy-benzenesulfonylamino)-quinoline-6-carboxylic Acid Cyclohexylamide] the pIC50 was > 7.00. `COc1ccc(OC)c(S(=O)(=O)Nc2cnc3ccc(CN(C)C)cc3c2)c1` [Example IX-15] showed a pIC50 of 6.00 to 7.00. With `COc1ccc(Br)cc1S(=O)(=O)Nc1ccsc1` [Example V-1, 5-Bromo-2-methoxy-N-(thiophen-3-yl)benzenesulfonamide] the pIC50 was < 6.00. For `COc1ccc(OC)c(S(=O)(=O)Nc2ccsc2)c1` [Example V-2, 2,5-Dimethoxy-N-(thiophen-3-yl)benzenesulfonamide], the pIC50 was < 6.00. For `COc1ccc(Br)cc1S(=O)(=O)Nc1ncco1` [Example V-3, 5-Bromo-2-methoxy-N-oxazol-2-yl-benzenesulfonamide], the pIC50 was < 6.00. With `COc1ccc(OC)c(S(=O)(=O)Nc2ncco2)c1` [Example V-4, 2,5-Dimethoxy-N-oxazol-2-yl-benzenesulfonamide] the pIC50 was < 6.00. `COc1ccc(Br)cc1S(=O)(=O)Nc1cc(C)no1` [Example V-5, 5-Bromo-2-methoxy-N-(3-methyl-isoxazol-5-yl)-benzenesulfonamide] was tested, and the pIC50 was 6.00 to 7.00. `COc1ccc(OC)c(S(=O)(=O)Nc2cc(C)no2)c1` [Example V-6, 2,5-Dimethoxy-N-(3-methyl-isoxazol-5-yl)-benzenesulfonamide] showed a pIC50 of 6.00 to 7.00. With `COc1ccc(Br)cc1S(=O)(=O)Nc1cc[nH]n1` [Example V-7, 5-Bromo-2-methoxy-N-(1H-pyrazol-3-yl)-benzenesulfonamide] the pIC50 was < 6.00. For `COc1ccc(OC)c(S(=O)(=O)Nc2cc[nH]n2)c1` [Example V-8, 2,5-Dimethoxy-N-(1H-pyrazol-3-yl)-benzenesulfonamide], the pIC50 was < 6.00. `COc1ccc(Br)cc1S(=O)(=O)Nc1ccn(C)n1` [Example V-9, 5-Bromo-2-methoxy-N-(1-methyl-1H-pyrazol-3-yl)-benzenesulfonamide] was tested, and the pIC50 was < 6.00. For `COc1ccc(OC)c(S(=O)(=O)Nc2ccn(C)n2)c1` [Example V-10, 2,5-Dimethoxy-N-(1-methyl-1H-pyrazol-3-yl)-benzenesulfonamide], the pIC50 was < 6.00. In the case of `COc1ccc(Br)cc1S(=O)(=O)Nc1ccnn1C` [Example V-11, 5-Bromo-2-methoxy-N-(2-methyl-2H-pyrazol-3-yl)-benzenesulfonamide], the pIC50 was < 6.00. In the case of `COc1ccc(OC)c(S(=O)(=O)Nc2ccnn2C)c1` [Example V-12, 2,5-Dimethoxy-N-(2-methyl-2H-pyrazol-3-yl)-benzenesulfonamide], the pIC50 was < 6.00.
